Literature values as cited in patent US20240238221A1, “[…] TREATING NEUROPATHIC PAIN IN COVID-19 PATIENTS” (Grünenthal GmbH, priority 2021, published 2024).

What was measured:
serotonin reuptake = settings: unlike tramadol
[1] = in the investigated dose ranges; vs. morphine, oxycodone or hydromorphone
[2] = at analgesic doses vs. Morphine
[3] = tested on: UGT1A6, UGT1A9 and UGT2B7; settings: mediated via UGT mainly UGT1A6, UGT1A9 and UGT2B7 isoforms

CC[C@@H](c1cccc(O)c1)[C@@H](C)CN(C)C [Tapentadol]
serotonin reuptake inhibition (serotonin reuptake): only weak serotonin reuptake inhibition | analgesic efficacy [1]: comparable to that of typical strong opioids | risk of drug-drug interactions at the CYP450 level (CYP450): low risk | immunosuppressive activity [2]: lower immunosuppressive activity | major elimination pathway [3]: conjugation with glucuronic acid
